# Measured values from article PMC4481955, “Sensitive, Fast, and Specific Immunoassays for Methyltestosterone Detection” (Sensors (Basel, Switzerland), 2015).
# What was measured:
# anti-MT mAb = experiment: indirect competitive ELISA (icELISA) with anti-MT monoclonal antibody; type: binding, mouse; conditions: for CR (%): CR = (IC50 of MT/IC50 of competition analogue) x 100%
# Protocol: (§1) Checkerboard titration was used for the determination of optimum coating antigen and antibody concentrations in icELISA. A 96-well microplate was coated with 100 μL/well MT-CMO-OVA (0.1 μg/mL, in 0.05 M CBS, pH 9.6) and incubated overnight at 4 °C. The wells were washed three times with washing buffer (0.01 M, PBS, containing 0.2% Tween 20) to remove free coating antigen and blocked with 220 μL blocking buffer (0.05 M, 0.2% Gelatin in CBS) at 37 °C for 2 h.
# After washing, 50 μL of different concentrations of standard and 50 μL of antibody were added to wells and incubated at 37 °C for 30 min. Following another wash to remove unbound antibody and standards, 100 μL of 1:3000 diluted HRP-labelled goat anti-mouse IgG was added to each well and incubated for 30 min at 37 °C. After washing three times, 100 μL of substrate was added and incubated for 15 min at 37 °C. The enzymatic reaction was stopped with 50 μL sulfuric acid (2 M) per well. A microplate reader was used to determine the absorbance of each well at 450 nm.
# Three immunoassay parameters (methanol content, ionic strength and pH of the solvent) were optimized to improve both the stability and sensitivity of icELISA. The criteria used to evaluate immunoassay performance were half inhibition concentration (IC50), maximum absorbance (Amax) and Amax/IC50. To optimize the methanol content in the solvent, PBS was mixed with different contents of methanol (0%, 5%, 10% and 20%). For ionic strength optimization, different concentrations of PBS (5, 10, 20, and 40 mM) were used. Finally, for solvent pH optimization, PBS was adjusted to different pH values (4.7–9.6).
# In this study, mAb specificity was investigated by cross-reactivity (CR). Competition analogues (testosterone, nor-testosterone, estradiol, estriol, progesterone, epitestosterone, dihydrotestosterone and dexamethasone) were prepared in methanol at 1 mg/mL. A series of standard solutions (0, 1, 2, 5, 10, 20, 50 and 100 ng/mL) were diluted with optimized PBS and subjected to icELISA. CR values were calculated with the following formula: CR (%) = (IC50 of MT/IC50 of competition analogue) × 100%
# [1] = system: antisera (mouse No. 16), anti-MT activity; experiment: icELISA screening of mouse antiserum for anti-MT activity; type: binding; conditions: mouse No. 16, after two subsequent injections, MT in PBS
# Protocol: Female BALB/c mice (8–10 weeks old) were injected subcutaneously at multiple sites with the immunogen MT-CMO-BSA (100 μg in 0.1 mL saline) emulsified with an equal volume of Freund’s complete adjuvant. For subsequent boosters administered at one-month intervals, Freund’s incomplete adjuvant was used. Antisera were collected following the third booster immunization and screened for anti-MT activity by icELISA [27]. The mouse with the highest anti-MT activity was administered the immunogen (20 μg in 0.2 mL saline) by intraperitoneal injection and sacrificed three days later for cell fusion.
# as §1
# After washing, 50 μL of different concentrations of standard and 50 μL of antibody were added to wells and incubated at 37 °C for 30 min. […] A microplate reader was used to determine the absorbance of each well at 450 nm.
# [2] = optimized icELISA, PBS 10 mM, pH 7.4
SMILES,CR (%) (anti-MT mAb),IC50 (anti-MT mAb; [2]) [ng/mL],other results
C[C@@H]1C[C@H]2[C@@H]3CCC4=CC(=O)C=C[C@]4(C)[C@@]3(F)[C@@H](O)C[C@]2(C)[C@@]1(O)C(=O)CO [Dexamethasone],<0.26,>100,–
C[C@]12CCC(=O)C[C@@H]1CC[C@@H]1[C@@H]2CC[C@]2(C)[C@@H](O)CC[C@@H]12 [Dihydrotestosterone],<0.26,>100,–
C[C@]12CC[C@H]3[C@@H](CCC4=CC(=O)CC[C@@]43C)[C@@H]1CC[C@H]2O [Epitestosterone],<0.26,>100,–
C[C@]12CC[C@@H]3c4ccc(O)cc4CC[C@H]3[C@@H]1CC[C@@H]2O [Estradiol],0.52,50,–
C[C@]12CC[C@@H]3c4ccc(O)cc4CC[C@H]3[C@@H]1C[C@@H](O)[C@@H]2O [Estriol],<0.26,>100,–
C[C@]12CCC(=O)C=C1CC[C@@H]1[C@@H]2CC[C@@]2(C)[C@H]1CC[C@]2(C)O [Methyltestosterone],100,0.26,"IC50 of antiserum [1]: approximately 3 ng/mL; IC50 (anti-MT mAb; ionic strength (PBS) 5 mM): 0.68 ± 0.017 ng/mL; IC50 (anti-MT mAb; ionic strength (PBS) 10 mM): 0.398 ± 0.024 ng/mL; IC50 (anti-MT mAb; ionic strength (PBS) 20 mM): 0.565 ± 0.024 ng/mL; IC50 (anti-MT mAb; ionic strength (PBS) 40 mM): 0.504 ± 0.092 ng/mL; IC50 (anti-MT mAb; methanol content 0%): 0.418 ± 0.02 ng/mL; IC50 (anti-MT mAb; methanol content 5%): 0.567 ± 0.023 ng/mL; IC50 (anti-MT mAb; methanol content 10%): 0.418 ± 0.05 ng/mL; IC50 (anti-MT mAb; methanol content 20%): 0.626 ± 0.009 ng/mL; IC50 (anti-MT mAb; pH 4.7): 0.456 ng/mL; IC50 (anti-MT mAb; pH 6.0): 0.723 ± 0.038 ng/mL; IC50 (anti-MT mAb; pH 7.4): 0.455 ng/mL; IC50 (anti-MT mAb; pH 8.6): 0.577 ± 0.026 ng/mL; IC50 (anti-MT mAb; pH 9.6): 0.714 ± 0.007 ng/mL; IC50 of purified mAb (anti-MT mAb; purified mAb from hybridoma 1E12, before optimization): 0.4 ng/mL"
C[C@]12CC[C@H]3[C@@H](CCC4=CC(=O)CC[C@@H]43)[C@@H]1CC[C@@H]2O [Nor-testosterone],1.04,25,–
CC(=O)[C@H]1CC[C@H]2[C@@H]3CCC4=CC(=O)CC[C@]4(C)[C@H]3CC[C@]12C [Progesterone],<0.26,>100,–
C[C@]12CC[C@H]3[C@@H](CCC4=CC(=O)CC[C@@]43C)[C@@H]1CC[C@@H]2O [Testosterone],–,12,–
